Source: ChEMBL document CHEMBL1201862, “PubChem BioAssay data set” (2004)
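96-well plates; 48 h exposure; 5 concentrations. Endpoints by linear interpolation between flanking doses. Not reached: highest tested concentration assigned. GI50 marks 50% less growth.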 Activity calls are given as the source filed them. Rule as the data show it: active = GI50 up to about 1.1 µM and inactive = higher.

Assays:
Assay in all cases: NCI-60 cell line screen, 48 h
[1] = system: OVCAR-8
[2] = system: OVCAR-5
[3] = system: A549
[4] = system: HCC 2998
[5] = system: SF-539
[6] = system: ACHN
[7] = system: KM-20L2
[8] = system: U-251
[9] = system: CAKI-1
[10] = system: COLO 205
[11] = system: SK-MEL-28
[12] = system: LXFL 529
[13] = system: CCRF-CEM
[14] = system: 786-0
[15] = system: SF-295
[16] = system: LOX IMVI
[17] = system: DMS-114
[18] = system: SK-MEL-2
[19] = system: SR
[20] = system: IGROV-1
[21] = system: HOP-62
[22] = system: UACC-62
[23] = system: UACC-257
[24] = system: RPMI-8226
[25] = system: M19-MEL
[26] = system: NCI-H460
[27] = system: NCI-H226
[28] = system: Malme-3M
[29] = system: TK-10
[30] = system: UO-31
[31] = system: HT-29
[32] = system: SK-OV-3
[33] = system: RXF 393
[34] = system: SNB-78
[35] = system: SK-MEL-5
[36] = system: SF-268
[37] = system: SN12C
[38] = system: HCT-116
[39] = system: NCI-H23
[40] = system: MOLT-4
[41] = system: M14
[42] = system: NCI-H522
[43] = system: DMS-273
[44] = system: SNB-75
[45] = system: OVCAR-3
[46] = system: SNB-19
[47] = system: EKVX
[48] = system: SW-620
[49] = system: HCT-15
[50] = system: HL-60
[51] = system: DLD-1
[52] = system: K562
[53] = system: XF498
[54] = system: HOP-92
[55] = system: KM12
[56] = system: OVCAR-4
[57] = system: A498
[58] = system: PC-3
[59] = system: MDA-N
[60] = system: MDA-MB-435
[61] = system: BT-549
[62] = system: DU-145
[63] = system: MDA-MB-231
[64] = system: T47D
[65] = system: Hs-578T

Structure (SMILES): C=C(C)C12CC3CC(/C(=N/O)C(C1)/C3=N\O)[C@@]2(C)O (stereo partly specified)
- GI50 [1]: > 100 µM (inactive)
- GI50 [2]: > 100 µM (inactive)
- GI50 [3]: > 100 µM (inactive)
- GI50 [4]: > 100 µM (inactive)
- GI50 [5]: > 100 µM (inactive)
- GI50 [6]: > 100 µM (inactive)
- GI50 [7]: > 100 µM (inactive)
- GI50 [8]: > 100 µM (inactive)
- GI50 [9]: > 100 µM (inactive)
- GI50 [10]: > 100 µM (inactive)
- GI50 [11]: > 100 µM (inactive)
- GI50 [12]: > 100 µM (inactive)
- GI50 [13]: > 100 µM (inactive)
- GI50 [14]: > 100 µM (inactive)
- GI50 [15]: > 100 µM (inactive)
- GI50 [16]: > 100 µM (inactive)
- GI50 [17]: > 100 µM (inactive)
- GI50 [18]: > 100 µM (inactive)
- GI50 [19]: > 100 µM (inactive)
- GI50 [20]: > 100 µM (inactive)
- GI50 [21]: > 100 µM (inactive)
- GI50 [22]: > 100 µM (inactive)
- GI50 [23]: > 100 µM (inactive)
- GI50 [24]: > 100 µM (inactive)
- GI50 [25]: > 100 µM (inactive)
- GI50 [26]: > 100 µM (inactive)
- GI50 [27]: > 100 µM (inactive)
- GI50 [28]: > 100 µM (inactive)
- GI50 [29]: > 100 µM (inactive)
- GI50 [30]: > 100 µM (inactive)
- GI50 [31]: > 100 µM (inactive)
- GI50 [32]: > 100 µM (inactive)
- GI50 [33]: > 100 µM (inactive)
- GI50 [34]: > 100 µM (inactive)
- GI50 [35]: > 100 µM (inactive)
- GI50 [36]: > 100 µM (inactive)
- GI50 [37]: > 100 µM (inactive)
- GI50 [38]: > 100 µM (inactive)
- GI50 [39]: > 100 µM (inactive)
- GI50 [40]: > 100 µM (inactive)
- GI50 [41]: > 100 µM (inactive)
- GI50 [42]: > 100 µM (inactive)
- GI50 [43]: > 100 µM (inactive)
- GI50 [44]: 93.8 µM (inactive)
- GI50 [45]: > 100 µM (inactive)
- GI50 [46]: > 100 µM (inactive)
- GI50 [47]: > 100 µM (inactive)
- GI50 [48]: > 100 µM (inactive)
- GI50 [49]: > 100 µM
- GI50 [50]: > 100 µM (inactive)
- GI50 [51]: > 100 µM (inactive)
- GI50 [52]: > 100 µM (inactive)

Structure (SMILES): Cc1cccc(NC2=NC(=O)C(CC(=O)Nc3cccc(C)c3C)S2)c1 (stereo unspecified)
- GI50 [1]: > 100 µM (inactive)
- GI50 [2]: > 100 µM (inactive)
- GI50 [3]: > 100 µM (inactive)
- GI50 [4]: > 100 µM (inactive)
- GI50 [53]: > 100 µM (inactive)
- GI50 [6]: > 100 µM (inactive)
- GI50 [7]: > 100 µM (inactive)
- GI50 [54]: 21.2 µM (inactive)
- GI50 [8]: > 100 µM (inactive)
- GI50 [10]: > 100 µM (inactive)
- GI50 [11]: > 100 µM (inactive)
- GI50 [12]: > 100 µM (inactive)
- GI50 [13]: 25.8 µM (inactive)
- GI50 [14]: > 100 µM (inactive)
- GI50 [15]: > 100 µM (inactive)
- GI50 [16]: > 100 µM (inactive)
- GI50 [17]: 63.5 µM (inactive)
- GI50 [18]: > 100 µM (inactive)
- GI50 [20]: > 100 µM (inactive)
- GI50 [21]: > 100 µM (inactive)
- GI50 [22]: > 100 µM (inactive)
- GI50 [23]: > 100 µM (inactive)
- GI50 [24]: 85.9 µM (inactive)
- GI50 [25]: > 100 µM (inactive)
- GI50 [26]: > 100 µM (inactive)
- GI50 [27]: > 100 µM (inactive)
- GI50 [28]: > 100 µM (inactive)
- GI50 [29]: > 100 µM (inactive)
- GI50 [30]: > 100 µM (inactive)
- GI50 [31]: > 100 µM (inactive)
- GI50 [33]: > 100 µM (inactive)
- GI50 [34]: > 100 µM (inactive)
- GI50 [55]: > 100 µM (inactive)
- GI50 [35]: > 100 µM (inactive)
- GI50 [36]: > 100 µM (inactive)
- GI50 [37]: > 100 µM (inactive)
- GI50 [38]: > 100 µM (inactive)
- GI50 [39]: > 100 µM (inactive)
- GI50 [40]: 24.3 µM (inactive)
- GI50 [41]: > 100 µM (inactive)
- GI50 [44]: > 100 µM (inactive)
- GI50 [45]: > 100 µM (inactive)
- GI50 [46]: > 100 µM (inactive)
- GI50 [47]: > 100 µM (inactive)
- GI50 [48]: > 100 µM (inactive)
- GI50 [56]: > 100 µM (inactive)
- GI50 [50]: 35.9 µM (inactive)
- GI50 [51]: > 100 µM (inactive)

Structure (SMILES): CCC/C=C/C=C/C(=O)OC1/C(=C/C(=O)OC)CC2CC(C(C)O)OC(=O)CC(O)CC3CC(OC(C)=O)C(C)(C)C(O)(CC4C/C(=C/C(=O)OC)CC(/C=C/C(C)(C)C1(O)O2)O4)O3 (stereo unspecified)
- GI50 [2]: > 12.5 µM (inactive)
- GI50 [57]: 4.18 µM (inactive)
- GI50 [5]: > 12.5 µM (inactive)
- GI50 [53]: 3.62 µM (inactive)
- GI50 [6]: 3.34 µM (inactive)
- GI50 [58]: 5.32 µM (inactive)
- GI50 [59]: 7.53 µM (inactive)
- GI50 [60]: 8.47 µM (inactive)
- GI50 [11]: 9.98 µM (inactive)
- GI50 [14]: 6.25 µM (inactive)
- GI50 [19]: > 12.5 µM (inactive)
- GI50 [61]: 8.57 µM (inactive)
- GI50 [62]: > 12.5 µM (inactive)
- GI50 [24]: 9.98 µM (inactive)
- GI50 [27]: > 12.5 µM (inactive)
- GI50 [63]: 6.22 µM (inactive)
- GI50 [29]: > 12.5 µM (inactive)
- GI50 [36]: 6.95 µM (inactive)
- GI50 [39]: 9.89 µM (inactive)
- GI50 [41]: > 11 µM (inactive)
- GI50 [64]: 7.01 µM (inactive)
- GI50 [42]: > 12.5 µM (inactive)
- GI50 [43]: 10.6 µM (inactive)
- GI50 [46]: > 12.5 µM (inactive)
- GI50 [65]: 6.07 µM (inactive)
- GI50 [51]: > 10.9 µM (inactive)
